Source: patent US11413266B2, “Use of cannabinoids in the treatment of inflammatory skin diseases” (GW Pharma Limited, priority 2015, dated 2022)

Tests used:
[1] = tested on: IL6; assay: PolyIC-induced IL6 release in NHEK keratinocytes, ELISA; type: cell-based, human; settings: NHEKs; concentration not singled out (0.3 and 3 μM tested)
[2] = tested on: IL8; assay: PolyIC-induced IL8 release in NHEK keratinocytes, ELISA; type: cell-based, human; settings: NHEKs; concentration not singled out (0.3 and 3 μM tested)
[3] = tested on: human epidermal keratinocytes; assay: Summary score, TLR3-induced inflammation model (microbial infection-induced dermatitis); type: cell-based; settings: sum of +1 anti-inflammatory, 0 no effect, −1 pro-inflammatory, Table 1
[4] = tested on: IL6; assay: UVB-induced IL6 mRNA expression in HaCaT keratinocytes, RT-qPCR; type: cell-based, human; settings: 0.3 μM
[5] = tested on: IL6; assay: UVB-induced IL6 release in HaCaT keratinocytes, ELISA; type: cell-based, human; settings: 3 μM
[6] = tested on: IL8; assay: UVB-induced IL8 mRNA expression in HaCaT keratinocytes, RT-qPCR; type: cell-based, human
[7] = tested on: IL8; assay: UVB-induced IL8 release in HaCaT keratinocytes, ELISA; type: cell-based, human; settings: 0.3 μM
[8] = tested on: human epidermal keratinocytes; assay: Summary score, UVB-induced inflammation model (solar dermatitis); type: cell-based; settings: sum of +1 anti-inflammatory, 0 no effect, −1 pro-inflammatory, Table 2
[9] = tested on: HPV-Ker keratinocytes; assay: Summary score, SEB/TSLP-induced inflammation model (atopic dermatitis); type: cell-based, human; settings: sum of +1 anti-inflammatory, 0 no effect, −1 pro-inflammatory, Table 3
[10] = tested on: MCP-2; assay: MCP-2 ELISA in supernatants of poly-(I:C)-stimulated HaCaT cells; type: cell-based, human
[11] = tested on: HaCaT cells; assay: Cell viability of HaCaT cells (MTT); type: cell-based, human; settings: 20 μM
Experimental: Cell viability was measured after 6 h in HaCaT cells treated with CBD (20 μM) or vehicle by using the 3-(4,5-dimethylthiazol-2yl)-2,5-diphenyl tetrazolium bromide (MTT) colorimetric assay.
Briefly, after 6 h HaCaT cells were incubated with MTT (5 mg·ml-1) for 3 h at 37° C. in 5% CO2. After 3 h HaCaT cells were lysed with DMSO and incubated for 6 h at 37° C. in 5% CO2.
Absorbance was measured at 630 nm. Results are expressed as % of cell viability, where optical density values from vehicle-treated cells were defined as 100% of cell viability.

[12] = tested on: AEA; assay: AEA levels in poly-(I:C)-stimulated HaCaT cells (LC-APCI-MS); type: cell-based, human; settings: CBD 20 μM, 6 h
Experimental: (§1) HaCaT cells were plated into six-well culture plates at a cell density of 9×10^5 cells per well, and after 1 day were stimulated with poly-(I:C) (100 μg·ml-1) and treated with CBD (20 μM) or vehicle, and incubated for 6 h at 37° C. in 5% CO2.
(§2) After 6 h the resulting cells and supernatants were subjected to measurement of endocannabinoids such as N-arachidonoyl-ethanolamine (anandamide, AEA) and 2-arachidonoyl-glycerol (2-AG), and related N-acylethanolamines such as PEA and N oleoylethanolamine (OEA).
(§3) Cells and supernatants were homogenized in a solution of chloroform/methanol/Tris-HCl 50 mM pH 7.4 (2:1:1 by vol.) containing 10 pmol of [2H]8-AEA, and 5 pmol of [2H]5-2-AG, [2H]4-PEA and [2H]2-OEA as internal deuterated standards. The lipid-containing organic phase was pre-purified by open-bed chromatography on silica gel, and fractions obtained by eluting the column with a solution of chloroform/methanol (90:10 by vol.) were analyzed by liquid chromatography-atmospheric pressure chemical ionization-mass spectrometry (LC-APCI-MS) by using a Shimadzu HPLC apparatus (LC-10ADVP) coupled to a Shimadzu (LCMS-2020) quadrupole MS via a Shimadzu APCI interface. […]

[13] = tested on: 2-AG; assay: 2-AG levels in poly-(I:C)-stimulated HaCaT cells (LC-APCI-MS); type: cell-based, human; settings: CBD 20 μM, 6 h
Experimental: as §1, §2, §3

[14] = tested on: OEA; assay: OEA levels in poly-(I:C)-stimulated HaCaT cells (LC-APCI-MS); type: cell-based, human; settings: CBD 20 μM, 6 h
Experimental: as §1, §2, §3

[15] = tested on: DNFB-induced allergic contact dermatitis (ACD); assay: DNFB-induced allergic contact dermatitis (ACD) in mice, ear swelling; type: in vivo
Experimental: A total of 10 animals per group were used in the experiments described here.
Briefly, DNFB was diluted in acetone/olive oil (4:1 by vol.) immediately before use and eight-ten week-old female C57BL/6J mice were sensitized by painting 50 μl of 0.2% DNFB on the shaved abdomen on two consecutive days. Then, mice were challenged by painting 10 μl of 0.3% DNFB on both sides of one ear on day 5.
Ear swelling was measured 24, 48 and 72 h after this first challenge by measuring the difference in ear thickness between the unchallenged and the challenged ear using an engineer's micrometer. CBD (2.5, -5- and 10 mg·kg-1) was administered intraperitoneally (i.p.) on day 5 (the day of the first challenge with DNFB), 6 and, 7 after the initial sensitization with DNFB. CBD was dissolved in DMSO and Tween-20 1%.
For the determination of MCP-2, endocannabinoids, PEA and OEA, group means were compared using the one-way ANOVA followed by Newman-Keuls multiple comparison test or the Student's t-test. For the determination of cell viability, group means were compared using the Student's t-test. All determinations were performed at least in triplicate. For the determination of ear thickness, group means were compared using the one-way ANOVA followed by Tukey-Kramer multiple comparison test (n=10).

[16] = tested on: human sebocytes; settings: Oláh et al., 2014; cited from earlier work

For `C=C(C)[C@@H]1CCC(C)=C[C@H]1c1c(O)cc(CCCCC)cc1O` [CBD, Cannabidiol], the “PolyIC-induced elevated release of IL6” value [1] was “dose-dependent suppression”, the “PolyIC-induced elevated release of IL8” value [2] was “dose-dependent suppression” and the SCORE ([3]; 0.3 μM) was 5. The SCORE ([3]; 3 μM) was 8, the “UVB-upregulated IL6 (RT-qPCR)” value [4] was “anti-inflammatory effects” and the “UVB-upregulated IL6 (ELISA)” value [5] was “anti-inflammatory effects”. The “UVB-upregulated IL8 (RT-qPCR)” value ([6]; 0.3 μM) was “anti-inflammatory effects”, the “UVB-upregulated IL8 (RT-qPCR)” value ([6]; 3 μM) was “pro-inflammatory effects” and the “UVB-upregulated IL8 (ELISA)” value [7] was “anti-inflammatory effects”. It also gave an SCORE ([8]; 0.3 μM) of 5, an SCORE ([8]; 3 μM) of 1 and an SCORE ([9]; 0.3 μM) of −1. The SCORE ([9]; 3 μM) was 1, the MCP-2 production ([10]; 20 μM, poly-(I:C)-stimulated HaCaT, 6 h) was “maximum effect” and the MCP-2 protein levels ([10]; 1, 5, 10 and 20 μM, poly-(I:C) 100 μg·ml-1, 6 h, vs vehicle) was “strong concentration-dependent reduction”. For the same compound, the MCP-2 protein levels ([10]; compound alone, 20 μM, absence of poly-(I:C), vs vehicle-treated HaCaT, data not shown) was “no significant variation”, the “potency in the inhibition of MCP-2 chemokine production relative to other phytocannabinoids tested” value ([10]; poly-(I:C)-stimulated keratinocytes) was “more potent” and the cytotoxicity [11] was “not cytotoxic”. For the same compound, the “AEA levels, increase compared to poly-(I:C)-stimulated HaCaT cells” value [12] was −2.7 fold, the “AEA levels, increase compared to vehicle-treated HaCaT cells” value [12] was −8 fold and the 2-AG levels [13] was “No consistent effect”. The OEA levels [14] was “No consistent effect”, the ear thickness ([15]; 2.5 mg·kg-1 i.p.) was “did not show any statistically significant effect” and the ear thickness ([15]; 5 mg·kg-1 i.p.) was “did not show any statistically significant effect”. The ear thickness ([15]; 10 mg·kg-1 i.p. on day 5, 6 and 7, 48 h after first challenge, vs control mice) was “reduced”, the ear thickness ([15]; 10 mg·kg-1 i.p. on day 5, 6 and 7, 72 h after first challenge, vs control mice) was “reduced” and the anti-acne effects [16] was “exerted anti-acne effects”.
